From ChEMBL document CHEMBL2074214, “Penetration of amitriptyline, but not of fluoxetine, into brain is enhanced in mice with blood-brain barrier deficiency due to mdr1a P-glycoprotein gene disruption” (Neuropsychopharmacology, 2000)

Biological target: ATP-dependent translocase ABCB1 (Mus musculus, UniProt P21447)
Experiment: TP_TRANSPORTER: increase in brain concentration in mdr1a(-/-) mouse
Assay type: functional, organism-based
Details: in vivo

Sequence of ATP-dependent translocase ABCB1 (P21447 whole entry): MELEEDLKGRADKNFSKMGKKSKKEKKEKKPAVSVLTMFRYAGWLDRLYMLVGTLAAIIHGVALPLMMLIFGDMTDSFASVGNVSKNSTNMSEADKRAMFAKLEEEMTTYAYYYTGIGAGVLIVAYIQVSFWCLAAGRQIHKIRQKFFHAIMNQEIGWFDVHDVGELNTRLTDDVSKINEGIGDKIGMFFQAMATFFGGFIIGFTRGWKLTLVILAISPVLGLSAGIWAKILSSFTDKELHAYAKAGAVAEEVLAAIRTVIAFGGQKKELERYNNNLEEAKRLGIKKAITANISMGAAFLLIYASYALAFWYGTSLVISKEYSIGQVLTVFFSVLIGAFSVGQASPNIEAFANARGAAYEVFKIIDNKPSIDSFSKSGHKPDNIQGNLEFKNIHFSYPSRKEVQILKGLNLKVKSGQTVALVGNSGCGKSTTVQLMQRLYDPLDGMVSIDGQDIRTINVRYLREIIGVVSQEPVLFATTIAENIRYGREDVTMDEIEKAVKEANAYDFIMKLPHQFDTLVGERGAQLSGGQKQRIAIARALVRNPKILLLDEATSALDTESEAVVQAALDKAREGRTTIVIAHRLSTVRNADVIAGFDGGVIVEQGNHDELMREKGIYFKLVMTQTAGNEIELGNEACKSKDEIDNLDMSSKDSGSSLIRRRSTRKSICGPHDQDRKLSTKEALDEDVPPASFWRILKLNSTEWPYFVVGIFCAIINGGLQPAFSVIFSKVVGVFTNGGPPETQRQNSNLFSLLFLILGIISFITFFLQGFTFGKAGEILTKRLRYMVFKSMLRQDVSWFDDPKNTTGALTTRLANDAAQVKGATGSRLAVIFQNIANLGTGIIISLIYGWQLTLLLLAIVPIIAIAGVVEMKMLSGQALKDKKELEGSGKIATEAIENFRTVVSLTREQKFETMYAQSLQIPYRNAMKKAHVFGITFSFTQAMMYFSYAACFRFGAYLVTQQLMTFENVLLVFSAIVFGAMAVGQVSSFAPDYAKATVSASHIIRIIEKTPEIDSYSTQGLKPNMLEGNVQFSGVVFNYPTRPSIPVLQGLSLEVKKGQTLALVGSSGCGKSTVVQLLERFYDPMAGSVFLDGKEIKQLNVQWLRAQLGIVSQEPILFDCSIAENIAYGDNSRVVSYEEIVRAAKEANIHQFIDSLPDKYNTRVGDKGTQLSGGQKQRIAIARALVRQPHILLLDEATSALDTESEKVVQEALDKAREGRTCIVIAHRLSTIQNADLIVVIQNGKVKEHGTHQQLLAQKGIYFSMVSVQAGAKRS

| Structure (SMILES) | Activity |
| --- | --- |
| CN(C)CCC=C1c2ccccc2CCc2ccccc21 [AMITRIPTYLINE] | substrate [+] |
| CNCCC=C1c2ccccc2CCc2ccccc21 [NORTRIPTYLINE] | substrate [+] |
